Assay results taken from PMC12718261, “New Fluorescent Synthetic Retinoids as Potential RAR Agonists with Anticancer, Molecular Docking and ADME Assessments” (Journal of Fluorescence, 2025).
Where “and” joins values, the source holds several entries; their conditions need not be identical. Equal values may be shown once.

Assays:
Type in all cases: cell-based
[1] = system: calcium-independent ATPases in Caco-2 cells; test: Calcium-independent ATPase activity, malachite green colorimetric; details: Caco-2, IC50 dose, 24 h; 0.1% DMSO control normalized to 100%
Description: (§1) The total activity of ATPase and calcium-independent ATPase activity was quantified colorimetrically as described by our previous protocol. […] The inorganic phosphate (Pi) liberated after the hydrolysis of ATP by ATPase enzymes was complexed into a colored product in one step after the addition of a mixed reagent containing malachite green, ammonium molybdate, and polyvinyl alcohol (2:1:1). The intensity of absorbance at 630 nm was measured using the BioTek 800 TS absorbance plate reader (USA) and was directly proportional to the quantity of liberated Pi. In order to eliminate any color due to the non-enzymatic hydrolysis of ATP, control reactions were made using only ATP in the reaction buffer, and the absorbance intensity was then subtracted from the readings of the samples and standards.

[2] = system: WI-38 normal human fibroblast cells; test: MTT cytotoxicity assay on normal fibroblasts; details: WI-38 normal fibroblast cells, 24 h, mean ± SEM
Description: (§2) The antiproliferation and cytotoxicity were assessed using 3-(4,5-dimethylthiazol-2-yl)−2,5-diphenyltetrazolium bromide (MTT, Serva) colorimetric assay. All tested cancer cell lines were seeded at a density of 20,000 cells per well in 96-well plates and allowed to adhere overnight. The attached cells were treated with five serial dilutions (100, 50, 5, 0.5, and 0.1 μM) in triplicate. These concentrations were prepared by diluting the stock solutions with serum-free culture media. The negative control cells were those treated with 0.1% DMSO solvent alone. The treated cells were handled in reduced light and maintained under standard culture growth conditions for 24 h. After the incubation period, MTT powder was prepared as a stock solution (5 mg/mL), and 20 μL of the MTT working reagent (final concentration 0.5 mg/mL) was added to each well. This was followed by incubation with MTT reagent for 4 h in a humidified atmosphere (37 °C, 5% CO2) with subsequent addition of 150 μL of DMSO solubilizing solvent and incubation for 20 min. The absorbance of solubilized violet formazan crystals was measured at 570 nm with a Biotek 800 TS microplate reader. IC50 was calculated as the concentration of retinoid that produced 50% cell growth inhibition. For cytotoxicity assessment, WI-38 normal human fibroblast cells were used for the calculation of SI, which is the ratio of IC50 retinoid (WI-38)/IC50 retinoid (cancer cell line).

Caco-2 cancer cells [3] = test: Apoptosis assay Annexin V/PI flow cytometry; details: Caco-2, IC50 dose, 24 h, AV/PI
Description: The standard protocol used in HSBR was performed. […] Cells were rinsed with 1 mL of binding buffer; the cells were again suspended in phosphate-buffered saline (PBS) (Lonza). 100 µL of cell suspension was incubated with 1 µL of FITC-labeled Annexin-V and 5 µL of PI for 15 min at 4 °C in the dark. The suspension was then mixed with 400 µL of ice-cold binding buffer, and each sample's apoptotic cells were analyzed using a Cytoflex flow cytometer (Beckman Coulter, USA), and CytExpert software (version 2.4.0.28) was employed for data analysis.

[4] = system: Caspase-3 gene in Caco-2 cells; test: Gene expression RT-qPCR; details: Caco-2, IC50 dose, 24 h, relative to 0.1% DMSO, normalized to GAPDH
Description: (§3) The gene expression analysis was performed using real-time quantitative PCR (RT-qPCR), as previously documented. After incubation, cells were harvested, and total RNA was extracted using the Favor-PrepTM Blood/Cultured Cell Total RNA Purification Mini kit (Favorgen Biotech Corp., Ping-Tung, Taiwan). The purified RNA was then reverse transcribed into the first-strand cDNA using the Revert Aid First-Strand cDNA Synthesis Kit (Thermo Scientific, Waltham, MA, USA). All qPCR reactions were carried out using the […] SYBR® Green qPCR Kit (Willowfort, Nottingham, UK). Differential gene expression was performed using the 2ˆ^−ΔΔCT method utilizing GAPDH as a reference gene.

[5] = system: RAR-α gene in Caco-2 cells; test: Gene expression RT-qPCR; details: Caco-2, IC50 dose, 24 h, relative to 0.1% DMSO, normalized to GAPDH
Description: as §3

[6] = system: Cyt-C gene in Caco-2 cells; test: Gene expression RT-qPCR; details: Caco-2, IC50 dose, 24 h, relative to 0.1% DMSO, normalized to GAPDH
Description: as §3

[7] = system: CRABPII gene in Caco-2 cells; test: Gene expression RT-qPCR; details: Caco-2, IC50 dose, 24 h, relative to 0.1% DMSO, normalized to GAPDH
Description: as §3

[8] = system: CRABPI gene in Caco-2 cells; test: Gene expression RT-qPCR; details: Caco-2, IC50 dose, 24 h, relative to 0.1% DMSO, normalized to GAPDH
Description: as §3

[9] = system: RAR-γ gene in Caco-2 cells; test: Gene expression RT-qPCR; details: Caco-2, IC50 dose, 24 h, relative to 0.1% DMSO, normalized to GAPDH
Description: as §3

[10] = system: RAR-α, RAR-β, RAR-γ proteins in Caco-2 cells; test: Western blotting of RAR proteins; details: Caco-2, IC50 dose, 24 h, normalized to β-actin
Description: Using the previously outlined protocol, the western blot technique was used to determine the expression of RAR-α (Cat. No. E6Z6 K, cell signaling, USA), RAR-β (Cat. No. PP-H4338-00, R&D systems, USA) and RAR- γ (Cat. No. D3 A4, cell signaling, USA) in Caco-2 cells. […] Following incubation, floating adhered cells were separated and lysed. The Caco-2 cell lysate was immediately collected, subjected to sonication, and centrifuged for 15 min at 12,000 × g. The total soluble protein content was measured colorimetrically using the PierceTM 660 nm Assay (Thermo Scientific, Waltham, MA, USA) after the resultant supernatant was separated. The Gel documentation system (Geldoc-it, UVP, England) was applied for data analysis using Totallab analysis software (Ver.1.0.1) (ww.totallab.com).

HCT-116 = test: MTT anti-proliferative assay; details: Homo sapiens; HCT-116, MTT, 24 h, mean ± SEM
Description: as §2

MDA-MB231 = test: MTT anti-proliferative assay; details: Homo sapiens, MDA-MB-231, 24 h, mean ± SEM
Description: as §2

MCF-7 = test: MTT anti-proliferative assay; details: Homo sapiens, MCF7; MCF-7, MTT, 24 h, mean ± SEM
Description: as §2

PC-3 = test: MTT anti-proliferative assay; details: Homo sapiens; PC-3, MTT, 24 h, mean ± SEM
Description: as §2

Caco-2 = test: MTT anti-proliferative assay; details: Homo sapiens; Caco-2, MTT, 24 h, mean ± SEM
Description: as §2

HepG-2 = test: MTT anti-proliferative assay; details: Homo sapiens, HepG2; HepG-2, MTT, 24 h, mean ± SEM
Description: as §2

Caco-2 cancer cells [11] = test: Cell cycle assay PI staining flow cytometry; details: Caco-2, IC50 dose, 24 h
Description: The standard protocol used in HSBR was performed. […] Cells were concentrated at 1500 xg and suspended in 50 μg/ml propidium iodide (PI) staining solution and 20 µg/ml RNaseA to identify cells with a sub-G1 DNA content. Cytoflex flow cytometer (Beckman Coulter, USA) was used, and CytExpert software (version 2.4.0.28) was employed for data analysis. The gating strategy used to eliminate doublets depends on plotting the population against a 2D contour plot in four quadrants, referred to as Q1(LL), Q2 (LR), Q3 (UL), and Q4 (UR), that illustrates the spread of the Annexin-FITC-H core cell population against PI PE-H.

[12] = system: total ATPase in Caco-2 cells; test: Total ATPase activity, malachite green colorimetric; details: Caco-2, IC50 dose, 24 h; 0.1% DMSO control normalized to 100%
Description: as §1

O=C(O)c1ccc2cc(-c3ccc4c(c3)CCCO4)ccc2c1 [Compound 4b, 6-(chroman-6-yl)−2-naphthoic acid]
ca+2-independent ATPase activity [1]: 36.1%
IC50 [2]: 33.5 ± 3.4 µM
% Early apoptotic cells (LR) (Caco-2 cancer cells [3]): 61.41% and 61.41 ± 5.3 %
% Late apoptotic cells (UL) (Caco-2 cancer cells [3]): 0.09%
% Necrotic cells (UR) (Caco-2 cancer cells [3]): 38.12 ± 2.8 %
% Viable cells (LL) (Caco-2 cancer cells [3]): 0.37%
caspase-3 gene expression fold change [4]: 2.3 ± 0.1 fold
RAR-α gene expression fold change [5]: 2.9 ± 0.1 fold
Cyt-C gene expression fold change [6]: 1.7 ± 0.1 fold
CRABPII gene expression fold change [7]: 2.0 ± 0.1 fold
CRABPI gene expression fold change [8]: 53.5 ± 2.4 fold
RAR-γ gene expression fold change [9]: 4.3 ± 0.2 fold
RAR protein expression (western blot) [10]: overexpression of all RAR subtypes
IC50 (HCT-116): 36.9 ± 2.4 µM
IC50 (MDA-MB231): 2.28 ± 0.2 µM
IC50 (MCF-7): 53.1 ± 5.4 µM
IC50 (PC-3): 2.71 ± 0.2 µM
IC50 (Caco-2): 15 ± 0.4 µM
IC50 (HepG-2): 59.5 ± 3.5 µM
% G0-G1 (Caco-2 cancer cells [11]): 17.69 ± 3.2%
% G2M (Caco-2 cancer cells [11]): 1.76 ± 0.1%
% S (Caco-2 cancer cells [11]): 4.16 ± 1.5%
% SubG0-G1 (Caco-2 cancer cells [11]): 76.81% and 76.81 ± 6.7 %
total ATPase activity [12]: 34.6%
